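How tested: cells in 96-well plates exposed to compound for 48 hours at five concentrations. GI50 is the concentration that inhibits growth by half. TGI marks complete inhibition of growth.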
How the values were obtained:
Test in all cases: inhibition of tumour cell growth, NCI panel, 48 h
LOX IMVI melanoma = test system: LOX IMVI melanoma
SR leukemia = test system: SR leukemia
M14 melanoma = test system: M14 melanoma
UACC-62 melanoma = test system: UACC-62 melanoma
ACHN renal = test system: ACHN renal
HOP-92 NSCLC = test system: HOP-92 NSCLC
SF-539 CNS = test system: SF-539 CNS
SK-OV-3 ovarian = test system: SK-OV-3 ovarian
MDA-MB-435 = test system: MDA-MB-435
UACC-257 melanoma = test system: UACC-257 melanoma

C=C1C(=O)O[C@H]2[C@H]1CC/C(Cn1cc(-c3ccc(OC)cc3)nn1)=C\CC[C@@]1(C)O[C@@H]21
GI50 (LOX IMVI melanoma): 1160 nM
TGI (LOX IMVI melanoma): 2510 nM
GI50 (SR leukemia): 257 nM
TGI (SR leukemia): 1480 nM
GI50 (M14 melanoma): 1300 nM
TGI (M14 melanoma): 3090 nM
GI50 (UACC-62 melanoma): 1350 nM
TGI (UACC-62 melanoma): 2990 nM
GI50 (ACHN renal): 293 nM
TGI (ACHN renal): 1120 nM
GI50 (HOP-92 NSCLC): 1130 nM
TGI (HOP-92 NSCLC): 2690 nM
GI50 (SF-539 CNS): 346 nM
TGI (SF-539 CNS): 1490 nM
GI50 (SK-OV-3 ovarian): 16300 nM
TGI (SK-OV-3 ovarian): 29900 nM
GI50 (MDA-MB-435): 1140 nM
TGI (MDA-MB-435): 3240 nM
GI50 (UACC-257 melanoma): 1780 nM
TGI (UACC-257 melanoma): 3850 nM

Source: PubChem BioAssay (NCI)
